Laboratory results: patent US6897222B2, “Pyrido[2,1-a]isoquinoline derivatives” (Hoffmann-La Roche Inc., priority 2001, dated 2005)

The molecules below were run against T1, human DPP-IV (Homo sapiens, UniProt P27487) (assay: DPP-IV activity assay (fluorogenic or colorimetric), IC50 determination). Details: natural human DPP-IV from plasma pool or recombinant human DPP-IV; substrate 50 μM (fluorogenic) or 200 μM (colorimetric); 37° C., pH 7.8.
T1 construct: made in house; host or cells: Pichia pastoris
Format: biochemical
Description: Activity of DPP-IV inhibitors are tested with natural human DPP-IV derived from a human plasma pool or with recombinant human DPP-IV. Human citrate plasma from different donors is pooled, filtered through a 0.2 micron membrane under sterile conditions and aliquots of 1 ml are shock frozen and stored at −120° C. until used. In the colorimetric DPP-IV assay 5 to 10 μl human plasma and in the fluorometric assay 1.0 μl of human plasma in a total assay volume of 100 μl is used as an enzyme source. […] Human DPP-IV is expressed and purified from the culture medium using conventional column chromatography including size exclusion and anion and cation chromatography. […] In the colorimetric DPP-IV assay 20 ng rec.-h DPP-IV and in the fluorometric assay 2 ng rec-h DPP-IV in a total assay volume of 100 μl is used as an enzyme source.
A 20 mM stock solution in 10% DMF/H2O is stored at −20° C. until use.
In the colorimetric assay H-Ala-Pro-pNA. […] A 10 mM stock solution in 10% MeOH/H2O is stored at −20° C. until use.
Initial rate constants are calculated by best fit linear regression.
DPP-IV activity assays are performed in 96 well plates at 37° C. in a total assay volume of 100 μl. The assay buffer consists of 50 mM Tris/HCl pH 7.8 containing 0.1 mg/ml BSA and 100 mM NaCl. Test compounds are solved in 100% DMSO, diluted to the desired concentration in 10% DMSO/H2O. The final DMSO concentration in the assay is 1% (v/v).
Compounds are with (10 minutes at 37° C.) and without preincubation with the enzyme. Enzyme reactions are started with substrate application followed by immediate mixing.
Kinetic parameters of the enzyme reaction are calculated at at least 5 different substrate concentrations and at least 5 different test compound concentrations.

T1 sequence (P27487 31-766): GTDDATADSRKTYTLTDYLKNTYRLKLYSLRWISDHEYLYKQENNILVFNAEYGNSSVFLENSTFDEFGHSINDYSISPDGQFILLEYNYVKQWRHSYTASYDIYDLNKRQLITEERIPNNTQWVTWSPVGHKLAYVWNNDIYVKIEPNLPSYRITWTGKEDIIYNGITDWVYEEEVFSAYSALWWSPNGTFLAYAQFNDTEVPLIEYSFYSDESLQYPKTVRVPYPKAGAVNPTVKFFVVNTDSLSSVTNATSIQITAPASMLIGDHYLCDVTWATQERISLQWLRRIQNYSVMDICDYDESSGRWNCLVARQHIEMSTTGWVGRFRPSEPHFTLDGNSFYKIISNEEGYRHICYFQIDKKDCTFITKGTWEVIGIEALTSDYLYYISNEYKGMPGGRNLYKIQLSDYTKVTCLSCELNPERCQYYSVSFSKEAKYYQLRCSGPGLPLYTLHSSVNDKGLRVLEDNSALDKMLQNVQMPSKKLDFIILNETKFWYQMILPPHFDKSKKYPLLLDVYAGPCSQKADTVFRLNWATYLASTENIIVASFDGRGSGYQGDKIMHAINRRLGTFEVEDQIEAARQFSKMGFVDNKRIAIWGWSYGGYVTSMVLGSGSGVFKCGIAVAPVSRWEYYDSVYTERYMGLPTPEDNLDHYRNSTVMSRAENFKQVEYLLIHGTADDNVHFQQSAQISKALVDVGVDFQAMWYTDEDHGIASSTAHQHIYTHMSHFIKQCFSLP

IC50 [nM] | Structure (SMILES)
620 | CCCC[C@@H]1CN2CCc3cc(O)c(OC)cc3[C@H]2C[C@H]1N (racemic) [Example 39, rac-2α-Amino-3β-butyl-10-methoxy-1,3,4,6,7,11bβ-hexahydro-2H-pyrido[2,1-a]isoquinolin-9-ol chlorohydrate (1:2)]
340 | CCCCC1CN2CCc3cc(O)c(OC)cc3C2CC1N (racemic) [Example 43b, rac-2α-amino-3β-butyl-10-methoxy-1,3,4,6,7,11bβ-hexahydro-2H-pyrido[2,1-a]isoquinolin-9-ol]

Second part, the molecule before the results:

Structure (SMILES) | IC50 [nM]
CCCCC1CN2C(CC1N)c1cc(OC)c(OC)cc1C1CCCCC12 (mixture of isomers) [Example 17, rac-7β-Butyl-11,12-dimethoxy-2,3,4,4a,6,7,8,9,9a,13bβ-decahydro-1H-pyrido[1,2-f]phenanthridin-8β-ylamine] | 140
COc1cc2c(cc1OC)C1CC(N)C(CCC(C)C)CN1CC2 (racemic) [Example 5, rac-9,10-Dimethoxy-3β-(3-methyl-butyl)-1,3,4,6,7,11bβ-hexahydro-2H-pyrido[2,1-a]isoquinolin-2α-ylamine] | 570
CCCCC1CN2C(CC1N)c1cc(OC)c(OC)cc1C1CCCCC12 (racemic) [Example 36, rac-7β-Butyl-11,12-dimethoxy-2,3,4,4a,6,7,8,9,9a,13bβ-decahydro-1H-pyrido[1,2-f]phenanthridin-8β-ylamine chlorohydrate (1:2)] | 160
